ED50 and LD50 data for 41 molecules are collected here from US4424358A, “β-3-Amino nor-tropane compounds” (Delalande S.A., priority 1979, dated 1984).

Data set [1] relates to apomorphine straightening. Put plainly: antagonism to apomorphine straightening (neuroleptic activity). The class given is in vivo, mice. The note with it: Mus musculus, ip, read-out: Apomorphine straightening ED 50.
Data set [2] in a line: acute toxicity by intraperitoneal administration. The conditions noted are these: mouse, in vivo, ip; mice, i.p., estimated lethal dose (method of Miller); read-out: Acute toxicity LD 50. The text has this:
Acute toxicity was studied on mice by intraperitoneal administration, and the estimated lethal doses in accordance with the method described by MILLER and THINTER Proc. Soc. Exper.

Like-named read-outs stand apart in the source and are kept apart here. Some results are limits rather than exact numbers.

In the case of `CCOc1nc(N)ncc1C(=O)N[C@@H]1C[C@H]2CC[C@@H](C1)N2Cc1ccccc1` [Compound 3], in data set [1], the ED50 was 0.04 mg/kg. Moreover, in data set [2], the LD50 is 300 mg/kg. Regarding `COc1nc(N)ncc1C(=O)N[C@@H]1C[C@H]2CC[C@@H](C1)N2Cc1ccc(Cl)cc1` [Compound 8, β-3-[5-(2-amino 4-methoxypyrimidinyl)carbonyl]amino N-parachlorobenzyl nor-tropane], the ED50 in data set [1] was 0.035 mg/kg. Further, the LD50 in data set [2] is 220 mg/kg. As to `COc1ccc(CN2[C@@H]3CC[C@H]2C[C@H](NC(=O)c2cnc(N)nc2OC)C3)cc1` [Compound 9], the ED50 in data set [1] was found to be 0.01 mg/kg. Also, the LD50 in data set [2] was 240 mg/kg. The like results for `COc1nc(N)ncc1C(=O)N[C@@H]1C[C@H]2CC[C@@H](C1)N2Cc1ccc(C)cc1` [Compound 10] were, in that order, 0.035 mg/kg and 325 mg/kg. For the molecule `COc1cc(N)c(Br)cc1C(=O)N[C@@H]1C[C@H]2CC[C@@H](C1)N2Cc1ccccc1` [Compound 16], the ED50 in data set [1] was 0.01 mg/kg. In addition, the LD50 in data set [2] is 240 mg/kg.

For `COc1cc(N)c(Br)cc1C(=O)N[C@@H]1C[C@H]2CC[C@@H](C1)N2Cc1ccc(F)cc1` [Compound 19, β-3-[(4-amino 5-bromo 2-methoxy)benzoyl]amino N-parafluorobenzyl nor-tropane, chlorhydrate], in data set [1], the ED50 came to 0.01 mg/kg. The LD50 in data set [2] was 90 mg/kg. The like results for `COc1cc(N)c(Br)cc1C(=O)N[C@@H]1C[C@H]2CC[C@@H](C1)N2Cc1ccc(Br)cc1` [Compound 20] were, in that order, 0.034 mg/kg and greater than 400 mg/kg. As for `COc1cc(N)c(Br)cc1C(=O)N[C@@H]1C[C@H]2CC[C@@H](C1)N2Cc1cccc(C(F)(F)F)c1` [Compound 21], in data set [1], the ED50 turned out to be 0.07 mg/kg. Besides, the LD50 in data set [2] is 85 mg/kg. Turning to `COc1cc(N)c(Br)cc1C(=O)N[C@@H]1C[C@H]2CC[C@@H](C1)N2Cc1ccc(Cl)cc1` [Compound 22], the ED50 in data set [1] was found to be 0.021 mg/kg. Also, the LD50 in data set [2] is 140 mg/kg.

Regarding `COc1cc(N)c(Br)cc1C(=O)N[C@@H]1C[C@H]2CC[C@@H](C1)N2Cc1ccc(C)cc1` [Compound 23], in data set [1], the ED50 was 0.07 mg/kg. In addition, the LD50 in data set [2] is greater than 400 mg/kg. The like results for `COc1cc(N)c(Br)cc1C(=O)N[C@@H]1C[C@H]2CC[C@@H](C1)N2Cc1cccc(C)c1` [Compound 24] were, in that order, 0.05 mg/kg and 160 mg/kg.

Take `COc1cc(N)c(Br)cc1C(=O)N[C@@H]1C[C@H]2CC[C@@H](C1)N2Cc1cccc(Cl)c1` [Compound 25]: in data set [1], the ED50 was 0.03 mg/kg. Besides, the LD50 in data set [2] was 100 mg/kg. For `COc1cc(N)c(Br)cc1C(=O)N[C@@H]1C[C@H]2CC[C@@H](C1)N2Cc1cccc(F)c1` [Compound 26] the same measures were 0.011 mg/kg and 140 mg/kg. Consider `COc1cc(N)c(Br)cc1C(=O)N[C@@H]1C[C@H]2CC[C@@H](C1)N2Cc1cccc(Br)c1` [Compound 27], for which the ED50 in data set [1] was 0.034 mg/kg. For the same molecule, the LD50 in data set [2] is greater than 400 mg/kg. For `COc1cc(N)c(Br)cc1C(=O)N[C@@H]1C[C@H]2CC[C@@H](C1)N2Cc1ccc(Cl)c(Cl)c1` [Compound 28] the same measures were 0.12 mg/kg and greater than 400 mg/kg. The like results for `COc1cc(N)c(Br)cc1C(=O)N[C@@H]1C[C@H]2CC[C@@H](C1)N2Cc1cccs1` [Compound 29] were, in that order, 0.012 mg/kg and 180 mg/kg. For `CCc1ccc(CN2[C@@H]3CC[C@H]2C[C@H](NC(=O)c2cc(Br)c(N)cc2OC)C3)cc1` [Compound 30] the same measures were 0.3 mg/kg and 230 mg/kg. Regarding `COc1cc(N)c(Br)cc1C(=O)N[C@@H]1C[C@H]2CC[C@@H](C1)N2Cc1ccsc1` [Compound 32], the ED50 in data set [1] came out at 0.05 mg/kg. In addition, the LD50 in data set [2] is 140 mg/kg. The like results for `COc1cc(N)c(Br)cc1C(=O)N[C@@H]1C[C@H]2CC[C@@H](C1)N2Cc1ccc(C(F)(F)F)cc1` [Compound 33] were, in that order, 0.19 mg/kg and greater than 400 mg/kg. For `COc1cc(N)c(Br)cc1C(=O)N[C@@H]1C[C@H]2CC[C@@H](C1)N2CC1CCCCC1` [Compound 35] the same measures were 0.07 mg/kg and 80 mg/kg.

Consider `COc1nc(N)ncc1C(=O)N[C@@H]1C[C@H]2CC[C@@H](C1)N2Cc1ccc(Br)cc1` [Compound 37], for which the ED50 in data set [1] was 0.16 mg/kg. In data set [2], the LD50 is 170 mg/kg.

As for `COc1cc(NC(C)=O)c(Br)cc1C(=O)N[C@@H]1C[C@H]2CC[C@@H](C1)N2Cc1ccccc1` [Compound 40], the ED50 in data set [1] came to 0.05 mg/kg. Further, in data set [2], the LD50 is 130 mg/kg. For `COc1cc(NC(=O)C(F)(F)F)c(Br)cc1C(=O)N[C@@H]1C[C@H]2CC[C@@H](C1)N2Cc1ccccc1` [Compound 41] the same measures were 0.03 mg/kg and 225 mg/kg. As to `COc1cc(NC(C)=O)c(Cl)cc1C(=O)N[C@@H]1C[C@H]2CC[C@@H](C1)N2Cc1ccccc1` [Compound 42], the ED50 in data set [1] amounted to 0.05 mg/kg. For the same molecule, the LD50 in data set [2] is 61 mg/kg.

As for `COc1cc(NC(=O)C(F)(F)F)c(Cl)cc1C(=O)N[C@@H]1C[C@H]2CC[C@@H](C1)N2Cc1ccccc1` [Compound 43], the ED50 in data set [1] amounted to 0.03 mg/kg. Besides, the LD50 in data set [2] was 120 mg/kg. The like results for `COc1ccc([N+](=O)[O-])cc1C(=O)N[C@@H]1C[C@H]2CC[C@@H](C1)N2Cc1ccccc1` [Compound 48] were, in that order, 0.21 mg/kg and 310 mg/kg. For `COc1ccc(F)cc1C(=O)N[C@@H]1C[C@H]2CC[C@@H](C1)N2Cc1ccccc1` [Compound 49] the same measures were 0.08 mg/kg and 120 mg/kg. The like results for `COc1ccc(O)cc1C(=O)N[C@@H]1C[C@H]2CC[C@@H](C1)N2Cc1ccccc1` [Compound 51] were, in that order, 0.03 mg/kg and 140 mg/kg. As for `COc1cc(OC)c(C(=O)N[C@@H]2C[C@H]3CC[C@@H](C2)N3Cc2ccccc2)cc1OC` [Compound 60], in data set [1], the ED50 is 0.027 mg/kg. In data set [2], the LD50 is 75 mg/kg. The like results for `COc1ccc(C(=O)N[C@@H]2C[C@H]3CC[C@@H](C2)N3Cc2ccccc2)c(OC)c1OC` [Compound 61] were, in that order, 0.02 mg/kg and 80 mg/kg.

With `COc1ccccc1C(=O)N[C@@H]1C[C@H]2CC[C@@H](C1)N2Cc1ccccc1` [Compound 62], the ED50 in data set [1] came to 0.04 mg/kg. Also, the LD50 in data set [2] was 60 mg/kg. The like results for `COc1cccc(C(=O)N[C@@H]2C[C@H]3CC[C@@H](C2)N3Cc2ccccc2)c1OC` [Compound 64] were, in that order, 0.008 mg/kg and 83 mg/kg. In the case of `COc1cc(N)ccc1C(=O)N[C@@H]1C[C@H]2CC[C@@H](C1)N2Cc1ccccc1` [Compound 67], in data set [1], the ED50 amounted to 0.038 mg/kg. Besides, in data set [2], the LD50 is 100 mg/kg. For `COc1ccc(C(=O)N[C@@H]2C[C@H]3CC[C@@H](C2)N3Cc2ccccc2)c(OC)c1` [Compound 68] the same measures were 0.02 mg/kg and 47 mg/kg. The like results for `COc1cc(N)c(Cl)cc1C(=O)N[C@@H]1C[C@H]2CC[C@@H](C1)N2Cc1ccco1` [Compound 71] were, in that order, 0.11 mg/kg and 120 mg/kg. Take `COc1cc(N)c(Cl)cc1C(=O)N[C@@H]1C[C@H]2CC[C@@H](C1)N2Cc1ccsc1` [Compound 72]: in data set [1], the ED50 worked out at 0.04 mg/kg. Also, the LD50 in data set [2] is 110 mg/kg. The like results for `COc1cc(N)c(Cl)cc1C(=O)N[C@@H]1C[C@H]2CC[C@@H](C1)N2Cc1cccs1` [Compound 73] were, in that order, 0.02 mg/kg and 170 mg/kg.

`COc1c(C(=O)N[C@@H]2C[C@H]3CC[C@@H](C2)N3Cc2ccccc2)cc(Br)c(N)c1Br` [Compound 74]: the ED50 in data set [1] worked out at 0.035 mg/kg. Also, the LD50 in data set [2] is 250 mg/kg. For `CCOc1cc(N)c(Br)cc1C(=O)N[C@@H]1C[C@H]2CC[C@@H](C1)N2Cc1ccccc1` [Compound 75], the ED50 in data set [1] was determined as 0.021 mg/kg. Also, the LD50 in data set [2] was greater than 400 mg/kg.

Take `COc1cc(OC)cc(C(=O)N[C@@H]2C[C@H]3CC[C@@H](C2)N3Cc2ccccc2)c1` [Compound 83]: in data set [1], the ED50 was found to be 0.031 mg/kg. Moreover, the LD50 in data set [2] was 140 mg/kg. `CCN1CCCC1CNC(=O)c1cc(S(N)(=O)=O)ccc1OC` (stereo not drawn) [SULPIRIDE, reference compound]: the ED50 in data set [1] (mice, i.p.) came out at 37 mg/kg.
